These molecules were tested against DP IV (Homo sapiens, UniProt P27487) (assay: DP IV inhibition IC50, parallel-synthesis compounds tested directly following synthesis (without purification)). Settings: DP IV inhibition; compounds of formula (Ib) from parallel synthesis, tested directly following synthesis (without purification); read-out: IC50.
Assay type: biochemical
Parameters: IC50 DP4; other: tested directly following parallel synthesis, without purification; compounds of formula (Ib) from parallel synthesis, tested directly following synthesis
Experimental: Compounds were immediately tested regarding their activity as DP IV inhibitors.
Substances are screened for inhibition of dipeptidyl peptidase (DP IV) by their ability to inhibit the hydrolysis of the DP IV specific substrate Glycyl-Prolyl-4-Nitroanilide (Gly-Pro-pNA). All compounds are diluted in DMSO and IC50 will be determined with 11 serial dilutions (1:2) starting with an final concentration of 100 μM. The final DMSO concentration in the assay is 5% (v/v). The method was automated using a Tecan Genesis Freedom liquid handler and a Genius Pro (Tecan) microplate reader.
DP IV from porcine kidney (pDP IV) or recombinant human DP IV (rhDP IV) is diluted in HEPES buffer to a final activity of approximately 40-50 μU*ml^−1. The DP IV is stored in a cooling rack (4° C.) on the liquid handler.
The assay may becarried out at room temperature using Freedom liquid handler connected with a Genios Pro microplate reader. Each sample is measured in duplicate. Each sample stock solution is prediluted with DMSO in a ratio of 1:5 in a polypropylen 96-well plate. From this predilution 10 serial (1:2) dilutions in DMSO are prepared. 13.5 μl of the 11 DMSO dilutions and DMSO alone are transferred to the measurement microplate (duplicates) and 86.5 μl water, 100 μl HEPES buffer and 50 μl substrate solution are added to each well. The enzymatic reaction is started by addition of 20 μl enzyme solution to each well, and then the microplate is immediately transferred to the microplate reader.
After short mixing (20 s) the release of 4-Nitroanilin (pNA) is monitored at 405 nm for 30 cycles (approx. 18 min).
Post assay calculations are done by the Magellan (Tecan) and Graphit Software. The linear slopes are calculated for each well and averaged for the duplicates. The residue activities are calculated in relation to a sample containing only solvent instead of inhibitor and expressed in %. Residue activities are plotted against the log of inhibitor concentrations and IC50 is calculated by an 4-parameter fitting ranging from 0 to 100%.

SMILES	IC50 [µM]
CC(C)CCCCCCn1cnc(-c2ccc(Cl)cc2Cl)c1CN [99b, C-[5-(2,4-Dichloro-phenyl)-3-(7-methyl-octyl)-3H-imidazol-4-yl]-methylamine]	4.6
NCc1c(-c2ccc(Cl)cc2Cl)ncn1Cc1cc(F)ccc1F [119b, C-[5-(2,4-Dichloro-phenyl)-3-(2,5-difluoro-benzyl)-3H-imidazol-4-yl]-methylamine]	2.8
NCCCc1c(-c2ccc(Cl)cc2Cl)ncn1CCc1c[nH]c2cc(Cl)ccc12 [105b, 3-[3-[2-(6-Chloro-1H-indol-3-yl)-ethyl]-5-(2,4-dichloro-phenyl)-3H-imidazol-4-yl]-propylamine]	37.9
NCc1c(-c2ccc(Cl)cc2Cl)ncn1CCO [56b, 2-[5-Aminomethyl-4-(2,4-dichloro-phenyl)-imidazol-1-yl]-ethanol]	19.9
Cc1cc(Cn2cnc(-c3ccc(Cl)cc3Cl)c2CN)no1 [13b, C-[5-(2,4-Dichloro-phenyl)-3-(5-methyl-isoxazol-3-ylmethyl)-3H-imidazol-4-yl]-methylamine]	20.8
CCCCCCn1cnc(-c2ccc(Cl)cc2Cl)c1CN [84b, C-[5-(2,4-Dichloro-phenyl)-3-hexyl-3H-imidazol-4-yl]-methylamine]	1
NCc1c(-c2ccc(Cl)cc2Cl)ncn1Cc1ccc(F)cc1F [Example 54b, C-[5-(2,4-dichloro-phenyl)-3-(2,4-difluoro-benzyl)-3H-imidazol-4-yl]-methylamine]	4.6
NCc1c(-c2ccc(Cl)cc2Cl)ncn1Cc1c(F)cccc1F [40b, C-[5-(2,4-Dichloro-phenyl)-3-(2,6-difluoro-benzyl)-3H-imidazol-4-yl]-methylamine]	10.9

Continued, values first:

IC50 [µM]	SMILES
40.6	CC(C)CCn1cnc(-c2ccc(Cl)cc2Cl)c1C(C)N (centres unmarked) [44b, 1-[5-(2,4-Dichloro-phenyl)-3-(3-methyl-butyl)-3H-imidazol-4-yl]-ethylamine]
30.7	CC(N)c1c(-c2ccc(Cl)cc2Cl)ncn1CCCN1CCCC1=O (centres unmarked) [22b, 1-{3-[5-(1-Amino-ethyl)-4-(2,4-dichloro-phenyl)-imidazol-1-yl]-propyl}-pyrrolidin-2-one]
9.1	NCc1c(-c2ccc(Cl)cc2Cl)ncn1CCc1ccccc1 [57b, C-[5-(2,4-Dichloro-phenyl)-3-phenethyl-3H-imidazol-4-yl]-methylamine]
3.7	NCc1c(-c2ccc(Cl)cc2Cl)ncn1CCc1ccc(F)cc1 [55b, C-{5-(2,4-Dichloro-phenyl)-3-[2-(4-fluoro-phenyl)-ethyl]-3H-imidazol-4-yl}-methylamine]
41.5	CC(N)c1c(-c2ccc(Cl)cc2Cl)ncn1CCCc1ccccc1 (centres unmarked) [70b, 1-[5-(2,4-Dichloro-phenyl)-3-(3-phenyl-propyl)-3H-imidazol-4-yl]-ethylamine]
5.5	NCc1c(-c2ccc(Cl)cc2Cl)ncn1Cc1ccccc1C(F)(F)F [108b, C-[5-(2,4-Dichloro-phenyl)-3-(2-trifluoromethyl-benzyl)-3H-imidazol-4-yl]-methylamine]
8.2	NCc1c(-c2ccc(Cl)cc2Cl)ncn1CCNc1ccc([N+](=O)[O-])cn1 [20b, {2-[5-Aminomethyl-4-(2,4-dichloro-phenyl)-imidazol-1-yl]-ethyl}-(5-nitro-pyridin-2-yl)-amine]
35.2	CC(N)c1c(-c2ccc(Cl)cc2Cl)ncn1CCC1=CCCCC1 (centres unmarked) [71b, 1-[3-(2-Cyclohex-1-enyl-ethyl)-5-(2,4-dichloro-phenyl)-3H-imidazol-4-yl]-ethylamine]
27.1	NCc1c(-c2ccc(Cl)cc2Cl)ncn1Cc1ccc(C(F)(F)F)cc1 [98b, C-[5-(2,4-Dichloro-phenyl)-3-(4-trifluoromethyl-benzyl)-3H-imidazol-4-yl]-methylamine]
11.8	Cc1ccc(Cn2cnc(-c3ccc(Cl)cc3Cl)c2CN)cc1 [66b, C-[5-(2,4-Dichloro-phenyl)-3-(4-methyl-benzyl)-3H-imidazol-4-yl]-methylamine]
28	C[C@H](N)c1c(-c2ccc(Cl)cc2Cl)ncn1CCC(c1ccccc1)c1ccccc1 [88b, (S)-1-[5-(2,4-Dichloro-phenyl)-3-(3,3-diphenyl-propyl)-3H-imidazol-4-yl]-ethylamine]
7.3	NCc1c(-c2ccc(Cl)cc2Cl)ncn1CCc1cccnc1 [9b, C-[5-(2,4-Dichloro-phenyl)-3-(2-pyridin-3-yl-ethyl)-3H-imidazol-4-yl]-methylamine]
21.7	C[C@H](N)c1c(-c2ccc(Cl)cc2Cl)ncn1CCNc1ccc([N+](=O)[O-])cn1 [111b, {2-[5-((S)-1-Amino-ethyl)-4-(2,4-dichloro-phenyl)-imidazol-1-yl]-ethyl}-(5-nitro-pyridin-2-yl)-amine]

Same assay, conditions: tested directly following parallel synthesis, without purification; read-out: IC50 DP4

SMILES	IC50 [µM]
NCc1c(-c2ccc(F)cc2Cl)ncn1Cc1ccccc1F [Example 28a, C-[5-(2-Chloro-4-fluoro-phenyl)-3-(2-fluoro-benzyl)-3H-imid-azol-4-yl]-methyl-amine]	19
COc1cccc(Cn2cnc(-c3ccc(F)cc3Cl)c2CN)c1 [Example 9a, C-[5-(2-Chloro-4-fluoro-phenyl)-3-(3-methoxy-benzyl)-3H-imid-azol-4-yl]-methyl-amine]	16.3
NCc1c(-c2ccc(Cl)cc2Cl)ncn1Cc1c(F)cccc1F [Example 37a, C-[5-(2,4-Dichloro-phenyl)-3-(2,6-difluoro-benzyl)-3H-imid-azol-4-yl]-methyl-amine]	4.6
NCc1c(-c2ccc(F)cc2F)ncn1Cc1cc(F)ccc1F [Example 85a, C-[3-(2,5-Difluoro-benzyl)-5-(2,4-difluoro-phenyl)-3H-imid-azol-4-yl]-methyl-amine]	36.1
NCc1c(-c2ccc(Cl)cc2Cl)ncn1Cc1ccc(F)cc1Cl [Example 63a, C-[3-(2-Chloro-4-fluoro-benzyl)-5-(2,4-di-chloro-phenyl)-3H-imid-azol-4-yl]-methyl-amine]	1.9
NCc1c(-c2ccc(F)cc2Cl)ncn1Cc1cccnc1 [Example 31a, C-[5-(2-Chloro-4-fluoro-phenyl)-3-pyri-din-3-ylmethyl-3H-imid-azol-4-yl]-methyl-amine]	5.5
NCc1c(-c2ccc(F)cc2Cl)ncn1Cc1ccc(F)cc1Cl [Example 29a, C-[3-(2-Chloro-4-fluoro-benzyl)-5-(2-chlo-ro-4-fluoro-phenyl)-3H-imid-azol-4-yl]-methyl-amine]	31.6
CCn1cnc(-c2ccc(Cl)cc2Cl)c1CN [Example 59a, C-[5-(2,4-Dichloro-phenyl)-3-eth-yl-3H-imid-azol-4-yl]-methyl-amine]	25.3
NCc1c(-c2ccc(Cl)cc2Cl)ncn1Cc1ccc2c(c1)OCO2 [Example 48a, C-[3-Ben-zo[1,3]di-oxol-5-yl-methyl-5-(2,4-dichloro-phenyl)-3H-imid-azol-4-yl]-methyl-amine]	0.1
NCc1c(-c2ccc(F)cc2F)ncn1Cc1ccco1 [Example 72a, C-[5-(2,4-Difluoro-phenyl)-3-furan-2-ylmethyl-3H-imidazol-4-yl]-methylamine]	11.8
NCc1c(-c2ccc(F)cc2Cl)ncn1Cc1cccc(C(F)(F)F)c1 [Example 6a, C-[5-(2-Chloro-4-fluoro-phenyl)-3-(3-tri-fluoromethyl-benzyl)-3H-imid-azol-4-yl]-methyl-amine]	17.2
NCc1c(-c2ccc(F)cc2Cl)ncn1Cc1c(F)cccc1Cl [Example 13a, C-[3-(2-Chloro-6-fluoro-benzyl)-5-(2-chloro-4-fluoro-phenyl)-3H-imid-azol-4-yl]-methyl-amine]	36.1
NCc1c(-c2ccc(F)cc2Cl)ncn1Cc1c(Cl)cccc1Cl [Example 26a, C-[5-(2-Chloro-4-fluoro-phenyl)-3-(2,6-di-chloro-benzyl)-3H-imid-azol-4-yl]-methyl-amine]	39.7
NCc1c(-c2ccc(F)cc2Cl)ncn1Cc1ccc(F)cc1 [Example 5a, C-[5-(2-Chloro-4-fluoro-phenyl)-3-(4-fluoro-benzyl)-3H-imid-azol-4-yl]-methyl-amine]	10.9

Next, values leading:

IC50 [µM]	SMILES
18.1	NCc1c(-c2ccc(F)cc2Cl)ncn1Cc1ccccc1Cl [Example 3a, C-[3-(2-Chloro-benzyl)-5-(2-chlo-ro-4-fluoro-phenyl)-3H-imid-azol-4-yl]-methyl-amine]
1.9	NCc1c(-c2ccc(Cl)cc2Cl)ncn1Cc1ccc(Cl)cc1 [Example 54a, C-[3-(4-Chloro-benzyl)-5-(2,4-dichloro-phenyl)-3H-imid-azol-4-yl]-methyl-amine]
10.9	NCc1c(-c2ccc(F)cc2Cl)ncn1Cc1ccccc1 [Example 15, C-[3-Benzyl-5-(2-chloro-4-fluoro-phenyl)-3H-imid-azol-4-yl]-methyl-amine]
